Here are results for 16 compounds from patent US5292737A, “N,N'-bis(sulfonamido)-2-amino-4-iminonaphthalen-1-ones and N,N'-bis(amido)-2-amino-4-iminonaphthalen-1-ones” (Sphinx Pharmaceuticals Corporation, priority 1992, dated 1994).

Where two headings read alike, the source gives them in different places. Where only a bound is given, the exact number is not on record here.

Test [1] has as its target T1, PKC isoenzyme ε (Homo sapiens, UniProt Q02156).
T1 construct: made in house; host or cells: baculovirus-insect cell expression system
T1 sequence (Q02156 1-737): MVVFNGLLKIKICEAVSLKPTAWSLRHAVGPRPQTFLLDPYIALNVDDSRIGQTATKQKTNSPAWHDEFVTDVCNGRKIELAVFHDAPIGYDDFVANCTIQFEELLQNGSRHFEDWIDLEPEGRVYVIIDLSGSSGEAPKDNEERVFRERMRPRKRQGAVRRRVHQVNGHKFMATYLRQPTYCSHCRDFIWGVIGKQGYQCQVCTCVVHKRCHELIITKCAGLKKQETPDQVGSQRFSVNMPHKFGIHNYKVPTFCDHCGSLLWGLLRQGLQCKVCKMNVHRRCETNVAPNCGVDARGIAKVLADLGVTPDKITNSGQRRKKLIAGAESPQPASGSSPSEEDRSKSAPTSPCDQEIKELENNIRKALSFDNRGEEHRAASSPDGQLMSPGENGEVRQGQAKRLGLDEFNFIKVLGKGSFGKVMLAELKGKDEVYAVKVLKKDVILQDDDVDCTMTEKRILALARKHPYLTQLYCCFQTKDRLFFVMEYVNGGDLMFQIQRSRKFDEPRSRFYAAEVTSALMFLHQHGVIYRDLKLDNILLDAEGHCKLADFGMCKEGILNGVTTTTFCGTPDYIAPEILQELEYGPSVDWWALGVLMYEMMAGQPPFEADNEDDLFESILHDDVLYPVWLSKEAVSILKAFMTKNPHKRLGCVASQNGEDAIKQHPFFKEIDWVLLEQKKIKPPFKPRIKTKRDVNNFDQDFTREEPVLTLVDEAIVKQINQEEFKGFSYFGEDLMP
Nature of the test: Protein kinase C inhibition assay, PKC isoenzyme ε. It is filed as biochemical. In a few lines:
(§1)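 Radiometric filter assay: enzyme from baculovirus-infected insect cells, H1 or Mbp acceptor, PS/DAG vesicles at suboptimal lipid levels, physiologic-like buffer. Test compound 1–150 μM (four levels, DMSO). 10 min reaction, 25% TCA + BSA stop, scintillation count; IC50 = 50% inhibition of control activity.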

Test [2] concerns the target T2, PKC isoenzyme α (Homo sapiens, UniProt P17252).
T2 construct: made in house; host or cells: baculovirus-insect cell expression system
The experiment in a line: Protein kinase C inhibition assay, PKC isoenzyme α. It is filed as biochemical. An outline of the steps:
as §1

Test [3] has as its system MCF-7 human breast tumor cell line. The experiment in a line: Human Tumor Cell Growth Inhibition (3H-thymidine incorporation). It is filed as cell-based. The method, then: MCF-7 a human breast tumor cell line was obtained from the National Cancer Institute, Frederick, Md. Tumor cells were trypsinized with 0.05% trypsin obtained from GIBCO (Grand Island Biological Co. Laboratories, Grand Island, N.Y.), counted with a hemacytometer and seeded at a concentration of 7,500 cells/well in a 96 well microtiter plate and allowed to attach to the surface overnight. To determine a concentration response, test agents were serially diluted an […] added at 2× final concentration to quadruplicate cultures to bring the total volume of each well to […]. The microtiter plate was then incubated at 37° C., 5% CO2 for 24 hrs with ^3 H-thymidine added at a concentration of 0.5 mCi/well in […] of 0.05% trypsin (GIBCO) was added to each well. Cells were checked microscopically to determine detachment from surfaces, and plates were harvested with a cell harvester (PHD, Cambridge Technology, Inc.). Filter paper corresponding to wells were placed in scintillation vials and counted to determine the amount ^3 H-thymidine incorporated by the cells. Counts per minute (CPM) of quadruplicate cultures were averaged and a percent of control calculated for each test agent concentration by the following formula: [formula]
The IC50 or concentration necessary to inhibit the proliferation of cells by 50% compared to control, of each test agent was determined by plotting % control vs log concentration for each dilution and then linear forecasting the 50% control value onto the X axis on a Quattro Pro computer program. Only regression values with a correlation coefficient greater then 0.9 were considered acceptable.
(Dividing cells build labelled thymidine or BrdU into new DNA.)

Test [4] addresses T3, PKC isoenzyme δ (Homo sapiens, UniProt Q05655).
T3 construct: made in house; host or cells: baculovirus-insect cell expression system
Nature of the test: Protein kinase C inhibition assay, PKC isoenzyme δ. It counts as biochemical. In a few lines: as §1

In test [5] the target is T4, PKC isoenzyme βII (Homo sapiens, UniProt P05771).
T4 construct: made in house; host or cells: baculovirus-insect cell expression system
Nature of the test: Protein kinase C inhibition assay, PKC isoenzyme βII. It counts as biochemical. An outline of the steps:
as §1

The test system of test [6] is normal human epidermal keratinocyte (NHEK) cells. Nature of the test: Human Keratinocyte Inhibition (3H TdR Assay). The conditions noted are these: 24 h incubation, 3H-thymidine. It counts as cell-based.
[7] abbreviates: Homo sapiens, MCF7, MCF-7, 24 hrs.

T4 sequence (P05771 1-673 isoform P05771-2): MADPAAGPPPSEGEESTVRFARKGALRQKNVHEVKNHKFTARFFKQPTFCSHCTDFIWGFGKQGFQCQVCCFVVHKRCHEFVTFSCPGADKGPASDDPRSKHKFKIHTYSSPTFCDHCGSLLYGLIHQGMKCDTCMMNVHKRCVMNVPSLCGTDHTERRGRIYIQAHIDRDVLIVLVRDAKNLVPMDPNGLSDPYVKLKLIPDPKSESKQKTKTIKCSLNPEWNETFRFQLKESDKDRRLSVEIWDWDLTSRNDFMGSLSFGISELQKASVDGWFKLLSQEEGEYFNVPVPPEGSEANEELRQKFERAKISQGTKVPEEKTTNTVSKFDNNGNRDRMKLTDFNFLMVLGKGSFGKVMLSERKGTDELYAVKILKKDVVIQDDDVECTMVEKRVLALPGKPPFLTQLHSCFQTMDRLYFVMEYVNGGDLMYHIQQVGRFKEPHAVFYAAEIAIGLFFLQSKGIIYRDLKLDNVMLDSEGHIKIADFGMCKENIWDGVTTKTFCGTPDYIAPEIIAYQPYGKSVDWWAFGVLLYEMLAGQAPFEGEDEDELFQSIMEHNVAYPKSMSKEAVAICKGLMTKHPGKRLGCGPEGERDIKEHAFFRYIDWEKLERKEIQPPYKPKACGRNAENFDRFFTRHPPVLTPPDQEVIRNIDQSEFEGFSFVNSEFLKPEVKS
T3 sequence (Q05655 whole entry): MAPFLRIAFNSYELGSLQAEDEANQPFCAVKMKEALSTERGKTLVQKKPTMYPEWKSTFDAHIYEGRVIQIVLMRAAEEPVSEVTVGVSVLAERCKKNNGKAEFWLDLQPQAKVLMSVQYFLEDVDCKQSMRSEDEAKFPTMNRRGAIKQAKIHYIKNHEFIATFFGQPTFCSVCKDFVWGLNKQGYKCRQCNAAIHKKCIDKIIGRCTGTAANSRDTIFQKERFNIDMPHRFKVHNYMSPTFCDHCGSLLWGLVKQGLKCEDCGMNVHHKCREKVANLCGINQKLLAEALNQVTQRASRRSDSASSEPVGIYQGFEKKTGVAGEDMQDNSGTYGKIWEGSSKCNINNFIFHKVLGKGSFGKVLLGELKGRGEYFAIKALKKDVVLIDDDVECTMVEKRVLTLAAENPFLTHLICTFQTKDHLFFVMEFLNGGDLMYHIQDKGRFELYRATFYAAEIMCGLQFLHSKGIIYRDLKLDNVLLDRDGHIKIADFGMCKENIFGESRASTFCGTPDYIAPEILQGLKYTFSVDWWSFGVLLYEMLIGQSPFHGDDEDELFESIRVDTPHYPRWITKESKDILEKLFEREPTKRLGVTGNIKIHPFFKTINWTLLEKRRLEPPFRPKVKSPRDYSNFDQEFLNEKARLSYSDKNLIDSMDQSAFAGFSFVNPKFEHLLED

For orientation: IC50 means the concentration needed to halve the response being measured. For the compound `Cc1cc(C)nc(NS(=O)(=O)c2cc(N=C3C=C(Nc4ccc(C)c(S(=O)(=O)Nc5cc(C)cc(C)n5)c4)C(=O)c4ccccc43)ccc2C)c1` [Compound 6ag], the 50% inhibitory concentration (IC50) is 35 µM in test [1] (read-out: IC50 PKC ε); 22 µM in test [2] (read-out: IC50 PKC α); 1.8 µM in test [3] (MCF-7, 24 hrs); 49 µM in test [4] (read-out: IC50 PKC δ); 28 µM in test [5] (read-out: IC50 PKC βII); 0.5 µM in test [6] (Homo sapiens).

For the compound `O=C1C(Nc2ccc(S(=O)(=O)NCc3ccccn3)cc2)=CC(=Nc2ccc(S(=O)(=O)NCc3ccccn3)cc2)c2ccccc21` [Compound 3n], the IC50 in test [1] (read-out: IC50 PKC ε) was greater than 150 µM; in test [2] (read-out: IC50 PKC α) it was 75 µM; in test [3] (setting [7]), 1.02 µM; in test [4] (read-out: IC50 PKC δ), greater than 150 µM; in test [5] (read-out: IC50 PKC βII), 141 µM; in test [6], 1.1 µM.

As for `Cc1ccnc(NS(=O)(=O)c2ccc(N=C3C=C(Nc4ccc(S(=O)(=O)Nc5nccc(C)n5)cc4)C(=O)c4ccccc43)cc2)n1` [Compound 3f], the IC50 in test [1] (read-out: IC50 PKC ε) is greater than 150 µM; in test [2] (read-out: IC50 PKC α), 28 µM; in test [3] (setting [7]), 16.6 µM; in test [4] (read-out: IC50 PKC δ) it was 86 µM; in test [5] (read-out: IC50 PKC βII), 23 µM; in test [6] (Homo sapiens), 1.2 µM.

`Cc1cc(NS(=O)(=O)c2ccc(N=C3C=C(Nc4ccc(S(=O)(=O)Nc5cc(C)nc(C)n5)cc4)C(=O)c4ccccc43)cc2)nc(C)n1` [Compound 3d]: the IC50 is greater than 150 µM in test [1] (read-out: IC50 PKC ε); 37 µM in test [2] (read-out: IC50 PKC α); 17.2 µM in test [3] (setting [7]); 95 µM in test [4] (read-out: IC50 PKC δ); 31 µM in test [5] (read-out: IC50 PKC βII); 2 µM in test [6] (Homo sapiens).

As to `Cc1cc(C)nc(NC(=O)c2ccc(N=C3C=C(Nc4ccc(C(=O)Nc5cc(C)cc(C)n5)cc4)C(=O)c4ccccc43)cc2)c1` [Compound 3ah], the half-inhibitory concentration (IC50) in test [1] (read-out: IC50 PKC ε) is greater than 150 µM; in test [2] (read-out: IC50 PKC α), 136 µM; in test [3] (setting [7]), 1.4 µM; in test [4] (read-out: IC50 PKC δ) it was greater than 150 µM; in test [5] (read-out: IC50 PKC βII) it was 145 µM; in test [6] (Homo sapiens) it was 1.4 µM.

Take `O=C1C(Nc2ccc(S(=O)(=O)NCCNc3ccc([N+](=O)[O-])cn3)cc2)=CC(=Nc2ccc(S(=O)(=O)NCCNc3ccc([N+](=O)[O-])cn3)cc2)c2ccccc21` [Compound 3ac]: the IC50 in test [1] (IC50 PKC ε) was greater than 150 µM; in test [2] (IC50 PKC α), 85 µM; in test [3] (setting [7]), 0.16 µM; in test [4] (IC50 PKC δ), 147 µM; in test [5] (IC50 PKC βII) it was 89 µM; in test [6] (Homo sapiens), 0.08 µM.

In the case of `COc1cnc(NS(=O)(=O)c2ccc(N=C3C=C(Nc4ccc(S(=O)(=O)Nc5ncc(OC)cn5)cc4)C(=O)c4ccccc43)cc2)nc1` [Compound 3h], the IC50 was greater than 150 µM in test [1] (read-out: IC50 PKC ε); 105 µM in test [2] (read-out: IC50 PKC α); 12.2 µM in test [3] (setting [7]); 58 µM in test [4] (read-out: IC50 PKC δ); 53 µM in test [5] (read-out: IC50 PKC βII); 0.9 µM in test [6] (Homo sapiens).

Consider `Cc1cc(C)nc(NS(=O)(=O)c2ccc(N=C3C=C(Nc4ccc(S(=O)(=O)Nc5nc(C)cc(C)n5)cc4)C(=O)c4ccccc43)cc2)n1` [Compound 6c], for which the IC50 stood at 15 µM in test [1] (read-out: IC50 PKC ε); 7 µM in test [2] (read-out: IC50 PKC α); 15.5 µM in test [3] (MCF-7, 24 hrs); 10 µM in test [4] (read-out: IC50 PKC δ); 14 µM in test [5] (read-out: IC50 PKC βII); 0.04 µM in test [6].

`Cc1cc(C)nc(NC(=O)c2ccc(N=C3C=C(Nc4ccc(C(=O)Nc5nc(C)cc(C)n5)cc4)C(=O)c4ccccc43)cc2)n1` [Compound 3ai]: the half-maximal inhibitory concentration (IC50) in test [1] (read-out: IC50 PKC ε) is greater than 105 µM; in test [2] (read-out: IC50 PKC α), 56 µM; in test [3] (setting [7]), 0.03 µM; in test [4] (read-out: IC50 PKC δ), greater than 150 µM; in test [5] (read-out: IC50 PKC βII) it was 101 µM; in test [6] (Homo sapiens) it was 0.16 µM.

Consider `COc1ccc(NS(=O)(=O)c2ccc(N=C3C=C(Nc4ccc(S(=O)(=O)Nc5ccc(OC)nn5)cc4)C(=O)c4ccccc43)cc2)nn1` [Compound 3j], for which the IC50 in test [1] (read-out: IC50 PKC ε) is greater than 150 µM; in test [2] (read-out: IC50 PKC α) it was 67 µM; in test [3] (setting [7]), 16.1 µM; in test [4] (read-out: IC50 PKC δ), 17 µM; in test [5] (read-out: IC50 PKC βII), 45 µM; in test [6], 0.34 µM.

For `COc1cc(NS(=O)(=O)c2ccc(N=C3C=C(Nc4ccc(S(=O)(=O)Nc5cc(OC)cc(OC)c5)cc4)C(=O)c4ccccc43)cc2)cc(OC)c1` [Compound 3af], the half-inhibitory concentration (IC50) was 111 µM in test [1] (read-out: IC50 PKC ε); 102 µM in test [2] (read-out: IC50 PKC α); 0.83 µM in test [3] (setting [7]); greater than 150 µM in test [4] (read-out: IC50 PKC δ); 143 µM in test [5] (read-out: IC50 PKC βII); less than 0.39 µM in test [6] (Homo sapiens).

With `O=C1C(Nc2ccc(S(=O)(=O)Nc3cnc4ccccc4n3)cc2)=CC(=Nc2ccc(S(=O)(=O)Nc3cnc4ccccc4n3)cc2)c2ccccc21` [Compound 6m], the half-inhibitory concentration (IC50) in test [1] (read-out: IC50 PKC ε) was 141 µM; in test [2] (read-out: IC50 PKC α), 9 µM; in test [3] (MCF-7, 24 hrs), 19 µM; in test [4] (read-out: IC50 PKC δ) it was 37 µM; in test [5] (read-out: IC50 PKC βII), 23 µM; in test [6], less than 0.39 µM.

In the case of `Cc1cc(C)nc(NS(=O)(=O)c2cccc(N=C3C=C(Nc4cccc(S(=O)(=O)Nc5cc(C)cc(C)n5)c4)C(=O)c4ccccc43)c2)c1` [Compound 3ae], the IC50 was greater than 150 µM in test [1] (read-out: IC50 PKC ε); 31 µM in test [2] (read-out: IC50 PKC α); 4.8 µM in test [3] (setting [7]); 85 µM in test [4] (read-out: IC50 PKC δ); 52 µM in test [5] (read-out: IC50 PKC βII); less than 0.39 µM in test [6] (Homo sapiens).

On to `O=C1C(Nc2ccc(S(=O)(=O)Nc3cnc4ccccc4n3)cc2)=CC(=Nc2ccc(S(=O)(=O)Nc3cnc4ccccc4n3)cc2)c2ccccc21` [Compound 3m], for which the half-inhibitory concentration (IC50) is greater than 150 µM in test [1] (read-out: IC50 PKC ε); 8 µM in test [2] (read-out: IC50 PKC α); 17.9 µM in test [3] (setting [7]); 122 µM in test [4] (read-out: IC50 PKC δ); 22 µM in test [5] (read-out: IC50 PKC βII); 0.4 µM in test [6] (Homo sapiens).

In the case of `COc1cc(NS(=O)(=O)c2ccc(N=C3C=C(Nc4ccc(S(=O)(=O)Nc5cc(OC)nc(OC)n5)cc4)C(=O)c4ccccc43)cc2)nc(OC)n1` [Compound 3g], the IC50 in test [1] (read-out: IC50 PKC ε) is greater than 150 µM; in test [2] (read-out: IC50 PKC α) it was 32 µM; in test [3] (setting [7]) it was 16.5 µM; in test [4] (read-out: IC50 PKC δ), 40 µM; in test [5] (read-out: IC50 PKC βII), 25 µM; in test [6], 0.6 µM.

As for `Cc1cc(C)nc(NS(=O)(=O)c2ccc(N=C3C=C(Nc4ccc(S(=O)(=O)Nc5nc(C)cc(C)n5)cc4)C(=O)c4ccccc43)cc2)n1` [Compound 3c], the concentration for half-maximal inhibition (IC50) in test [1] (read-out: IC50 PKC ε) is greater than 150 µM; in test [2] (read-out: IC50 PKC α), 17 µM; in test [3] (MCF-7, 24 hrs), 7.03 µM; in test [4] (read-out: IC50 PKC δ), 72 µM; in test [5] (read-out: IC50 PKC βII), 7 µM; in test [6], 0.52 µM.
